Legend:
[1] = tested on: EGFP-α-synuclein; experiment: EGFP-α-synuclein degradation assay in SH-SY5Y cells; format: cell-based, human
Protocol: For EGFP-α-synuclein degradation assay, equal numbers of sub-confluent SH-SY5Y cells are seeded in 6 well dishes and allowed to attach for 24 h. Cells are transfected with EGFP-α-synuclein plasmid using Lipofectamine 2000 (Life technologies) and allowed to express for 24 h.
After treatments, cells are collected in Laemmli buffer to perform LC3 processing assay, P70S6K, GSK3β and 4E-BP1 immunoblotting. To validate EGFP-α-synuclein degradation by 6-Bio, treated cells are scraped and collected in growth medium. After washing with phosphate buffer, pellets are lysed in Laemmli buffer and boiled for 10 min.
Samples are electrophoresed on SDS-PAGE (8-15%) and then transferred onto PVDF (Bio-Rad) membrane using Transblot turbo (Bio-Rad). Transferred blots are stained with Ponceau S, probed with appropriate primary antibodies overnight and subsequently horseradish peroxidase conjugated secondary antibody. Signals are developed using enhanced chemiluminescence substrate (Clarity, Bio-Rad), imaged using a gel documentation system (G-Box, Syngene) and bands are quantified using image software (NIH). (FIGS. 4F and 5A)

[2] = tested on: SH-SY5Y cells (autophagosomes and autolysosomes); experiment: Tandem RFP-EGFP-LC3 assay in SH-SY5Y cells; format: cell-based, human; details: 2 h
Protocol: Sub-confluent HeLa and/or SH-SY5Y cells are seeded into 60 mm cell culture dishes, then transfected with ptf LC3 construct and/or siRNA and allowed to express for 48 h. Cells are trypsinized, seeded again on poly-D-lysine coated cover slips in a 12 or 24 well plates and allowed to attach. After appropriate treatments, the coverslips containing cells are processed for imaging. For immunofluorescent antibody staining, the cover slips are incubated in primary antibody at 4° C. for overnight followed by secondary antibody incubation at room temperature.
For imaging the mammalian cells, after appropriate treatments, coverslips containing cells are fixed using 4% paraformaldehyde (PFA) (Sigma) and then permeabilized using Triton X-100 (0.2%, HiMedia). On slide, coverslips are mounted using antifade, Vectashield mounting medium (Vector laboratories). For antibody staining, coverslips are blocked using 5% BSA for 1 h at room temperature, then incubated with primary antibody at 4° C., overnight and then subsequently probed with corresponding fluorescent dye conjugated secondary antibody.

Row | SMILES | reduction of EGFP-α-synuclein levels ([1]; 5 μM, 24 h, versus untreated) [fold] | EGFP-α-synuclein levels on co-treatment with 3-MA ([1]; with 3-methyl adenine (5 mM)) | autolysosomes, fold vs control [2] [fold] | autophagosomes, fold vs control [2] [fold]
1 | O=C1Nc2cc(Br)ccc2/C1=C1/Nc2ccccc2/C1=N\O [6-Bio, (2′Z,3′E)-6-Bromoindirubin-3′-oxime] | ~2 | does not change | – | –
2 | COc1cc(C=C(C#N)C(=O)Nc2nnc(C(F)(F)F)s2)ccc1OCc1ccc(C(F)(F)F)cc1C(F)(F)F [XCT 790, 3-[4-(2,4-Bis-trifluoromethylbenzyloxy)-3-methoxyphenyl]-2-cyano-N-(5-trifluoromethyl-1,3,4-thiadiazol-2-yl)acrylamide] | – | – | ~4 | ~2

From patent US20180369186A1, “METHOD FOR MODULATING AUTOPHAGY AND APPLICATIONS THEREOF” (JAWAHARLAL NEHRU CENTRE FOR ADVANCED SCIENTIFIC RESEARCH, priority 2015, published 2018)
